Assay results taken from US4228150A, “Method of inhibiting dextransucrase and oral compositions for use therein” (Iowa State University Research Foundation, Inc., priority 1979, dated 1980).

System: dextransucrase
Assay: Inhibition of dextransucrase synthesis of dextran from 14C-sucrose (radioactive polysaccharide on paper, slope versus control)
Assay type: biochemical, bacteria
Settings: compared to 6,1',6'-trifluorosucrose
Description: Dextransucrase was obtained from the culture supernatant of bacteria. Various amounts (6 to 30 mg/ml) of the fluorosucrose mixture prepared as in Example I were added to the enzyme (3 units/ml)* and allowed to incubate 10 minutes. At the end of this time, the enzyme was assayed by adding 1/2 volume of 0.3 M ^14 C-(U)-sucrose to the fluorosucrose-enzyme solution; equal aliquots were withdrawn with time and spotted onto 1.5×1.5 cm squares of Whatman 3 MM paper, which were immediately dropped into 20 ml anhydrous methanol. Three 200 ml volumes of methanol were added in 15 min. intervals. The papers were then removed, dried, and the radioactivity determined in a liquid scintillation spectrometer. The amount of radioactivity (polysaccharide formed) was plotted against the reaction time with sucrose (time of aliquot removed). The slopes of the resulting lines were determined and the percent inhibition calculated from the ratio of the slopes of the inhibited reactions to the slope of a control in which no inhibitor was added.
*Units are in terms of International Enzyme Units, that is, the amount of enzyme that will incorporate one micromole of monomer into polysaccharide per minute under conditions of optimum temperature and pH.

## O[C@@H]1[C@@H](O)[C@@H](O[C@]2(CCl)O[C@H](CCl)[C@@H](O)[C@@H]2O)O[C@H](CCl)[C@H]1O [6,1',6'-trichlorosucrose]
  effectiveness as an inhibitor for dextran: relatively ineffective
